According to publication PMC3692398 (Biochemical pharmacology, 2013):
Where two headings read alike, the source gives them in different places.

Experiments:
h5-HT2A receptor [1] = target: T1, h5-HT2A receptor (Homo sapiens, UniProt P28223); assay: Inhibition of 5-HT-stimulated IP-1 formation; assay type: cell-based; conditions: 100 nM 5-HT; for h5-HT2A Inhibition of 5-HT-stimulated IP-1 formation % maximum inhibition ± sem: normalized to maximal inhibition by ketanserin (10 µM); for IC50: read-out: h5-HT2A Inhibition of 5-HT-stimulated IP-1 formation IC50 ± sem
hSigma1 receptor = hSigma1 receptor (Homo sapiens, UniProt Q99720); assay: [3H]; assay type: binding; conditions: read-out: Inhibition of [3H]pentazocine binding Ki ± sem, hSigma1
hNET [2] = target: T2, hNET (Homo sapiens, UniProt P23975); assay: Superfusion release of preloaded [3H]NE from HEK-hNET cells; assay type: cell-based; conditions: for EC50: read-out: Drug-induced release of [3H]neurotransmitter EC50 ± sem, hNET [3H]NE, superfusion, AUC; for % maximum release ± sem, hNET [3H]NE: relative to maximal AUC induced by METH (0.3 or 1 µM)
hSERT [3] = target: T3, hSERT (Homo sapiens, UniProt P31645); assay: Superfusion release of preloaded [3H]5-HT from HEK-hSERT cells; assay type: cell-based; conditions: for EC50: read-out: Drug-induced release of [3H]neurotransmitter EC50 ± sem, hSERT [3H]5-HT, superfusion, AUC
hNET [4] = target: T2, hNET; assay: cell-based; assay type: cell-based; conditions: for IC50: read-out: Inhibition of [3H]neurotransmitter uptake IC50 ± sem, hNET [3H]NE
h5-HT1A receptor [5] = target: T4, h5-HT1A receptor (Homo sapiens, UniProt P08908); assay: Stimulation of [35S]GTPγS binding, HEK-h5-HT1A membranes; assay type: biochemical; conditions: for h5-HT1A Stimulation of [35S]GTPγS binding % maximum stimulation ± sem: normalized to the maximal stimulation by 5-HT; for EC50: read-out: h5-HT1A Stimulation of [35S]GTPγS binding EC50 ± sem
T4 sequence (P08908 1-422): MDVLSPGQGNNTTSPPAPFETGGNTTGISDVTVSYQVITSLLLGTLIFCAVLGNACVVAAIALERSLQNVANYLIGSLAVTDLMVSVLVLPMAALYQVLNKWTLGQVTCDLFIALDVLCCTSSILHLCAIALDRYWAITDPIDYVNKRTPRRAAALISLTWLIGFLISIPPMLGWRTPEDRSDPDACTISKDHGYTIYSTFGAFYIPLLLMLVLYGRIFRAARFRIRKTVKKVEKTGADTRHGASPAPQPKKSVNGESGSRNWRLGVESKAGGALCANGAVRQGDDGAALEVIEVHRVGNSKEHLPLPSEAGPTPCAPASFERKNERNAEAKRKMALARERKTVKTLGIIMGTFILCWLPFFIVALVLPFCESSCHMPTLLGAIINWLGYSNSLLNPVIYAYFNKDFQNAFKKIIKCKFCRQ

hVMAT2 [6] = target: T5, hVMAT2 (Homo sapiens, UniProt Q05940); assay: Superfusion release of preloaded [3H]NE from HEK-hVMAT2 cells; assay type: cell-based; conditions: read-out: Drug-induced release of [3H]NE EC50 ± sem, hVMAT2; superfusion
hDAT [7] = target: T6, hDAT (Homo sapiens, UniProt Q01959); assay: Superfusion release of preloaded [3H]DA from HEK-hDAT cells; assay type: cell-based; conditions: for EC50: read-out: Drug-induced release of [3H]neurotransmitter EC50 ± sem, hDAT [3H]DA, superfusion, AUC
h5-HT1A receptor [8] = target: T4, h5-HT1A receptor; assay: [3H]8-OH-DPAT binding, HEK-h5-HT1A; conditions: read-out: Inhibition of radioligand binding Ki ± sem, h5-HT1A [3H]8OH-DPAT
hNET [9] = target: T2, hNET; assay: biochemical; assay type: binding; conditions: read-out: Inhibition of [125I]RTI-55 binding Ki ± sem, hNET
[10] = overdose with a bath salt product containing 4-FMC and MDPV; ref [44]; cited from earlier work
hDAT [11] = target: T6, hDAT; assay: Inhibition of [3H]DA uptake, intact HEK-hDAT cells; assay type: cell-based; conditions: for IC50: read-out: Inhibition of [3H]neurotransmitter uptake IC50 ± sem, hDAT [3H]DA, 20 nM [3H]DA, intact cells
h5-HT2C receptor [12] = target: T7, h5-HT2C receptor (Homo sapiens, UniProt P28335); assay: Inhibition of 5-HT-stimulated IP-1 formation; assay type: cell-based; conditions: 100 nM 5-HT; normalized to maximal inhibition by SB242084 (1 µM)
T7 sequence (P28335 33-458): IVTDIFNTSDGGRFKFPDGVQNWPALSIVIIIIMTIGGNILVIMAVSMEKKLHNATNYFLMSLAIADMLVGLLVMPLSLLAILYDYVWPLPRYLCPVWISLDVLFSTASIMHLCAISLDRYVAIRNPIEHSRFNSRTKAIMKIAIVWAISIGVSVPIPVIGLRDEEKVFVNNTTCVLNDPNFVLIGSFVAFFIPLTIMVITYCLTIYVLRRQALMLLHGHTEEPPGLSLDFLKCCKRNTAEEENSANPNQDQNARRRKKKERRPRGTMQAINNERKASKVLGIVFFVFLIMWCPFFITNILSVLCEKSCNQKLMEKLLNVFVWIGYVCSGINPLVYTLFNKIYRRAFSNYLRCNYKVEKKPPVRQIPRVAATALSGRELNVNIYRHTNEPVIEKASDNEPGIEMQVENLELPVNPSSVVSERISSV

hDAT [13] = target: T6, hDAT; assay: Inhibition of [125I]RTI-55 binding, HEK-hDAT membranes; conditions: read-out: Inhibition of [125I]RTI-55 binding Ki ± sem, hDAT; HEK-hDAT membranes
hSERT [14] = target: T3, hSERT; assay: Inhibition of [3H]5-HT uptake, intact HEK-hSERT cells; assay type: cell-based; conditions: read-out: Inhibition of [3H]neurotransmitter uptake IC50 ± sem, hSERT [3H]5-HT; 20 nM [3H]5-HT, intact cells
h5-HT2C receptor [15] = target: T7, h5-HT2C receptor; assay: biochemical; assay type: binding; conditions: read-out: Inhibition of radioligand binding Ki ± sem, h5-HT2C [125I]DOI
hVMAT2 [16] = target: T5, hVMAT2; assay: Inhibition of [3H]5-HT uptake, HEK-hVMAT2 membrane preparation; assay type: biochemical; conditions: read-out: Inhibition of [3H]5-HT uptake IC50 ± sem, hVMAT2; 40 nM [3H]5-HT, 2 mM MgATP
h5-HT2A receptor [17] = target: T1, h5-HT2A receptor; assay: [125I]DOI binding, HEK-h5-HT2A; conditions: read-out: Inhibition of radioligand binding Ki ± sem, h5-HT2A [125I]DOI
human DA D1 receptor = human DA D1 receptor (Homo sapiens, UniProt P21728); assay: [3H]SCH23390 binding, LhD1 cells; conditions: test drugs up to the maximal concentration tested (10 µM)
human D4.4 receptor = target: T8, human D4.4 receptor (Homo sapiens, UniProt P21917); assay type: binding; conditions: test drugs up to 10 µM; words give concentration range, 'low' = low nanomolar
T8 sequence (P21917 1-419): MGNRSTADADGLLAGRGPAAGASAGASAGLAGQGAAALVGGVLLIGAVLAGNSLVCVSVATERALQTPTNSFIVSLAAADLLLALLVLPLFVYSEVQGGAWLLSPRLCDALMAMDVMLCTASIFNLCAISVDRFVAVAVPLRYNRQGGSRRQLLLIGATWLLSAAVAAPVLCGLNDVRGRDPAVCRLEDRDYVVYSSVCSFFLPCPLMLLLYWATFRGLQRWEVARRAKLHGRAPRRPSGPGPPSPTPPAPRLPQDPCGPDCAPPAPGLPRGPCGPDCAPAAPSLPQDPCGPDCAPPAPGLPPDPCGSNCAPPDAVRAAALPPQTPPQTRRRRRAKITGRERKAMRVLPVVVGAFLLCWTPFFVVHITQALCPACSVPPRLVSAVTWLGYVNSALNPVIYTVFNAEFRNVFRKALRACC

human DA D2 receptor = human DA D2 receptor (Homo sapiens, UniProt P14416); assay type: binding; conditions: test drugs up to the maximal concentration tested (10 µM)
hVMAT2 [18] = target: T5, hVMAT2; assay: Inhibition of [3H]DHTB binding, HEK-hVMAT2 membranes; conditions: read-out: Inhibition of [3H]DHTB binding Ki ± sem, hVMAT2
human DA D3 receptor = human DA D3 receptor (Homo sapiens, UniProt P35462); assay: [3H]YM-09151-2 binding, CHOp-D3 cells; conditions: test drugs up to 10 µM; words give concentration range, 'low' = low nanomolar
h5-HT2C receptor [19] = target: T7, h5-HT2C receptor; assay type: cell-based

T2 sequence (P23975 whole entry, the tested form may be a part): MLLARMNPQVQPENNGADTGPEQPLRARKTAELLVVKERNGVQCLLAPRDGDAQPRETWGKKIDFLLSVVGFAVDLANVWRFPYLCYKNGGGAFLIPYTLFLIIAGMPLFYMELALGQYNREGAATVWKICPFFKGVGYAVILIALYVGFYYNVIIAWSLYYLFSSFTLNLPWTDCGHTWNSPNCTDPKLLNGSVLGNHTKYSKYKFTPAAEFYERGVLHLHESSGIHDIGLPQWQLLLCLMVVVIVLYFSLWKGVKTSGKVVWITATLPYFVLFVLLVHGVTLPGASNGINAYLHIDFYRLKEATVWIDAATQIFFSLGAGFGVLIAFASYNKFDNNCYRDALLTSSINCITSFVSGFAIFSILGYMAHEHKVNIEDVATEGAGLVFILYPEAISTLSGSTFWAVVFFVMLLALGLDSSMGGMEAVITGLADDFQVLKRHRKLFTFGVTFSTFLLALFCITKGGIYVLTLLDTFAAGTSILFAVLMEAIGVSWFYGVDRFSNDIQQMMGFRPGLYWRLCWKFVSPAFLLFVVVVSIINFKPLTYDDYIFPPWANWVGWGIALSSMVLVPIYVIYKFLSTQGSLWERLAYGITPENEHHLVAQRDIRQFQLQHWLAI
T6 sequence (Q01959 whole entry, the tested form may be a part): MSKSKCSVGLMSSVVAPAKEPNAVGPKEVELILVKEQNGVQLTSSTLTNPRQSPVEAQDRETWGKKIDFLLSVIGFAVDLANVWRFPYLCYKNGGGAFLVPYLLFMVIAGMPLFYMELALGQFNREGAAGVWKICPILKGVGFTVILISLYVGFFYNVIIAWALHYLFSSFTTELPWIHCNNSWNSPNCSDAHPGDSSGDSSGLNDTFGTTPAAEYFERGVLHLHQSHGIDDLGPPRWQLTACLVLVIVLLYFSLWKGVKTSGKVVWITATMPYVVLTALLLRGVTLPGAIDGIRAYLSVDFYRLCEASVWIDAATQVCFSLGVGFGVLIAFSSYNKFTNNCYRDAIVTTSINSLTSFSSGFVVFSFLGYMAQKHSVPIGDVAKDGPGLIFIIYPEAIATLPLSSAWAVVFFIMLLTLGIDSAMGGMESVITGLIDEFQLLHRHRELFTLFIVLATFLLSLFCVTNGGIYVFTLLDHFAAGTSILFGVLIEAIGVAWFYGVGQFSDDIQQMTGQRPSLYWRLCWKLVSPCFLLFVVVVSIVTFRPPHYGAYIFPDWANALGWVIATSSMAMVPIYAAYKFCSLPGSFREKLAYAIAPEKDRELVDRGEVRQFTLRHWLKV
T3 sequence (P31645 whole entry, the tested form may be a part): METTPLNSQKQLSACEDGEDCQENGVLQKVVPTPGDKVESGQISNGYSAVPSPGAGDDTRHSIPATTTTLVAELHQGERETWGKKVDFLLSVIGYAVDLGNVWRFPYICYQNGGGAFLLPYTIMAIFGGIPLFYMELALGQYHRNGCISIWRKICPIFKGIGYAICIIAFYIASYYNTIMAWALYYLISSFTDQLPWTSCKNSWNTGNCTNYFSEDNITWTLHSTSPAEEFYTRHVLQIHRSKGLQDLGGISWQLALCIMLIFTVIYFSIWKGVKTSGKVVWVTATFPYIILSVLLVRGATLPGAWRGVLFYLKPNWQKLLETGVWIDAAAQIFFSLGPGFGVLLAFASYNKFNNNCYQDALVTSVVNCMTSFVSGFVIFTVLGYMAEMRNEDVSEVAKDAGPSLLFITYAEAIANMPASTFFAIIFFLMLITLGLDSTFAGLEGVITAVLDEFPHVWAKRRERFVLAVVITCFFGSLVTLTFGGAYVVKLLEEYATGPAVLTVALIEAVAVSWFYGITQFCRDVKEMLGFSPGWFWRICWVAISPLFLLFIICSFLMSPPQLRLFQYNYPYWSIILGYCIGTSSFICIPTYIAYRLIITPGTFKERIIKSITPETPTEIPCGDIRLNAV
T5 sequence (Q05940 whole entry, the tested form may be a part): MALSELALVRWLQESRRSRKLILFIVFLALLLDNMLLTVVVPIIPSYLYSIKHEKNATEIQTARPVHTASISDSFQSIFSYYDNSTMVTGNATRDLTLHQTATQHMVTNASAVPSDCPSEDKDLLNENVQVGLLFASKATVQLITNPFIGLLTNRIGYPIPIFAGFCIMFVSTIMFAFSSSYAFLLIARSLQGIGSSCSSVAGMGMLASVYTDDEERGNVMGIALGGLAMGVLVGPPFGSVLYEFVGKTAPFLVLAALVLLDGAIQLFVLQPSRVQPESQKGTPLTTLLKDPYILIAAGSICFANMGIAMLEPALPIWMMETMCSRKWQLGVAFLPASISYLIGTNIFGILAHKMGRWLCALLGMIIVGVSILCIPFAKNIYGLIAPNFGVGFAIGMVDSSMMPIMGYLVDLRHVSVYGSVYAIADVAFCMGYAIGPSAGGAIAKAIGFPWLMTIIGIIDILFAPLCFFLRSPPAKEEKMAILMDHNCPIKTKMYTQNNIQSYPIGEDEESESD
T1 sequence (P28223 whole entry): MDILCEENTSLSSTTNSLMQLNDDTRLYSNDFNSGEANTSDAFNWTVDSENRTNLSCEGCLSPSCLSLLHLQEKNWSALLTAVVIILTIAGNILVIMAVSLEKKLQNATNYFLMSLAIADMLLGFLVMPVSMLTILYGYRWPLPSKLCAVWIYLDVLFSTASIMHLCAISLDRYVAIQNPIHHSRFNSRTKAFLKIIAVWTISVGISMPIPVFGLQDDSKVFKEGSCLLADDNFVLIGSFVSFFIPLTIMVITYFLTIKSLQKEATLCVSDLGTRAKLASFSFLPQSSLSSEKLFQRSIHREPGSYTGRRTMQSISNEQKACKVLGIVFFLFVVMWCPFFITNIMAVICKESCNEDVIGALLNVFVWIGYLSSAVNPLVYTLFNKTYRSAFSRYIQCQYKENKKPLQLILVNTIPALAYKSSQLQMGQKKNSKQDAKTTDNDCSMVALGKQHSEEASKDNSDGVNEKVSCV
Sequence of hSigma1 receptor (Q99720 whole entry, the tested form may be a part): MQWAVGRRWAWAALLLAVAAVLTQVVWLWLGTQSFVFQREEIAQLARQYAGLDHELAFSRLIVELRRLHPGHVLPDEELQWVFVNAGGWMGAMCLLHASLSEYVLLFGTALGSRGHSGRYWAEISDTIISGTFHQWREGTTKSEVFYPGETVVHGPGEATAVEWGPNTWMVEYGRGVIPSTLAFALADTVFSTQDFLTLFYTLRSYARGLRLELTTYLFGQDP
Sequence of human DA D2 receptor (P14416 whole entry): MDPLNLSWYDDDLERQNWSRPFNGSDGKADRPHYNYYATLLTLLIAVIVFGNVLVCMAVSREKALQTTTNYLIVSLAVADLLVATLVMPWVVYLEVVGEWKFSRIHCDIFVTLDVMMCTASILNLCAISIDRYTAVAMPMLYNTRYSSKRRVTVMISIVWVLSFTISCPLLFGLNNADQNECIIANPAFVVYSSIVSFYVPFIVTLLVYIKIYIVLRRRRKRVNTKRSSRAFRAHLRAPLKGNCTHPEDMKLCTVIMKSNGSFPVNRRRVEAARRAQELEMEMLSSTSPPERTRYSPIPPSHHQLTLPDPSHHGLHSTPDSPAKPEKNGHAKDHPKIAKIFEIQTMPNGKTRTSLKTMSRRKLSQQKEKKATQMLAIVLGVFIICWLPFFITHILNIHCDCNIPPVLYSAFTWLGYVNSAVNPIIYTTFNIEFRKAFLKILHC
Sequence of human DA D3 receptor (P35462 whole entry): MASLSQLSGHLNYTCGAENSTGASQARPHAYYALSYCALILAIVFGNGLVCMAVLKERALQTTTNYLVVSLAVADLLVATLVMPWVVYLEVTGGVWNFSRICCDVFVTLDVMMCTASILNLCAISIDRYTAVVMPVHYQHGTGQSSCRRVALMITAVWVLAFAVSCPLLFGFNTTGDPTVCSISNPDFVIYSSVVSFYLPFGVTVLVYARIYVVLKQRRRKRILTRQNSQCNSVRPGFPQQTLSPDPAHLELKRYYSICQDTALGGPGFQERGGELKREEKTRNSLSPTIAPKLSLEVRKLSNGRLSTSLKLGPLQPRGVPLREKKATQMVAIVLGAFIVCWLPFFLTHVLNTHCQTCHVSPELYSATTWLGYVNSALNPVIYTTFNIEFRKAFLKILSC
Sequence of human DA D1 receptor (P21728 whole entry): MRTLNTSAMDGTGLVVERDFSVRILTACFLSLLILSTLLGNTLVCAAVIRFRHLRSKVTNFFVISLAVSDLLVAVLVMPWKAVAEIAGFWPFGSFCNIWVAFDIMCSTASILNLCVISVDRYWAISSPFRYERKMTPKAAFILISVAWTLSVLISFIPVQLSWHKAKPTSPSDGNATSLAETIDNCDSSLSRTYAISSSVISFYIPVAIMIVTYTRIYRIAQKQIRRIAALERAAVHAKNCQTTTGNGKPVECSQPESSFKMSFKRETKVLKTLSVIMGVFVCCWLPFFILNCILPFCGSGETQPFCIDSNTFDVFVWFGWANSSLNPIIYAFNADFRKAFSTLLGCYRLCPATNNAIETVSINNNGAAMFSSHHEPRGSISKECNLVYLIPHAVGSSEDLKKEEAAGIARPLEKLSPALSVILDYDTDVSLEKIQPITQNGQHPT

| SMILES | h5-HT2A Inhibition of 5-HT-stimulated IP-1 formation % maximum inhibition ± sem (h5-HT2A receptor [1]) | IC50 (h5-HT2A receptor [1]) | Ki (hSigma1 receptor) | EC50 (hNET [2]) | % maximum release ± sem, hNET [3H]NE (hNET [2]) | % maximum release ± sem, hSERT [3H]5-HT (hSERT [3]) | EC50 (hSERT [3]) | h5-HT1A Stimulation of [35S]GTPγS binding % maximum stimulation ± sem (h5-HT1A receptor [5]) | EC50 (h5-HT1A receptor [5]) | EC50 (hVMAT2 [6]) | EC50 (hDAT [7]) | Ki (h5-HT1A receptor [8]) | IC50 (hDAT [11]) | h5-HT2C Inhibition of 5-HT-stimulated IP-1 formation % maximum inhibition ± sem (h5-HT2C receptor [12]) | Ki (hDAT [13]) | IC50 (hSERT [14]) | IC50 (hVMAT2 [16]) | Ki (h5-HT2A receptor [17]) | also measured |
| --- | --- | --- | --- | --- | --- | --- | --- | --- | --- | --- | --- | --- | --- | --- | --- | --- | --- | --- | --- |
| CNC(C)C(=O)c1ccc(F)cc1 (stereo not drawn) [4-FMC, 4-fluoromethcathinone] | 97.0 ± 1.6% | 23.6 ± 3 µM | 24.2 ± 9 µM | 1530 ± 430 nM | 194 ± 58% | 39.3 ± 9.7% | 39 ± 14 µM | 70.7 ± 8.3% | 156 ± 3.4 µM | > 100 µM | 17.8 ± 7.6 µM | 71.6 ± 3.4 µM | 273 ± 74 nM | 15 ± 20% | 10.4 ± 3.3 µM | > 10000 nM | 178 ± 36 µM | 10 ± 1 µM | time of peak [3H]NE release after addition of drug (hNET [2]): 8 to 16 min; time of peak [3H]5-HT release after addition of drug (hSERT [3]): about 6 min; ratio of binding Ki to uptake IC50, hNET (hNET [4]; [125I]RTI-55 Ki / [3H]NE uptake IC50): 276; IC50 (hNET [4]; 20 nM [3H]NE, intact cells): 127 ± 20 nM; % maximum release ± sem, hDAT [3H]DA (hDAT [7]): 98 ± 14%; time of peak/maximal [3H]DA release after addition of drug (hDAT [7]; 4-FMC 10 µM to 300 µM, mephedrone 30 µM, methylone 100 µM): about 6 min; fold less potent than METH to induce [3H]DA release (hDAT [7]; EC50 compared to METH): 45 fold; Ki (hNET [9]; HEK-hNET membranes): 35 ± 10 µM; serum concentration in overdose [10]: 346 ng/mL; serum concentration in overdose (molar) [10]: ~ 1.6 uM; ratio of binding Ki to uptake IC50, hDAT (hDAT [11]; [125I]RTI-55 Ki / [3H]DA uptake IC50): 38; Ki (h5-HT2C receptor [15]): 12.6 ± 2.4 µM |
| CNC(C)Cc1ccc2c(c1)OCO2 (stereo not drawn) [MDMA, 3,4-methylenedioxymethylamphetamine, reference compound] | 96.3 ± 3.8% | 189 ± 52 µM | 19.4 ± 6.3 µM | 570 ± 190 nM | 116 ± 11% | 74 ±12% | 1.04 ± 0.27 µM | 65.8 ± 8.5% | 35 ± 14 µM | 114 ± 40 µM | 4.8 ± 2.3 µM | 14.1 ± 2.4 µM | 201 ± 47 nM | 9 ± 12% | 22 ± 5.1 µM | 109 ± 17 nM | 5.8 ± 1.4 µM | 8.3 ± 1.2 µM | IC50 (hNET [4]): 24.2 nM; affinity for the [3H]SCH23390 binding site, DA D1 receptor (human DA D1 receptor): no measurable affinity; affinity for the [3H]YM-09151-2 binding site, DA D4.4 receptor (human D4.4 receptor): no measurable affinity; affinity for the [3H]YM-09151-2 binding site, DA D2 receptor (human DA D2 receptor): no measurable affinity; Ki (hVMAT2 [18]): 661 ± 58 µM; % maximum release ± sem, hDAT [3H]DA (hDAT [7]; relative to maximal AUC induced by METH (1 or 10 µM)): 104 ± 14%; Ki (hNET [9]): 30.9 µM; affinity for the [3H]YM-09151-2 binding site, DA D3 receptor (human DA D3 receptor): no measurable affinity; h5-HT2C agonist activity, inositol monophosphate (h5-HT2C receptor [19]): full agonist with low micromolar potency |
